Several values for one entry are separate records, joined by “and”; a condition that tells them apart may be missing. Equal entries are not always repeated.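 All cell lines were grown in 96-well plates and treated with compound for 48 hours. Here, GI50 denotes the concentration required for 50% inhibition of growth. TGI marks complete inhibition of growth.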
Experiments:
Assay in all cases: NCI tumour cell line growth inhibition, 48 h
NCI-H460 lung = tested on: NCI-H460 lung
HL-60(TB) leukemia = tested on: HL-60(TB) leukemia
HCC-2998 colon = tested on: HCC-2998 colon
SNB-75 CNS = tested on: SNB-75 CNS
HOP-18 NSCLC = tested on: HOP-18 NSCLC
NCI-H522 lung = tested on: NCI-H522 lung
SK-MEL-2 melanoma = tested on: SK-MEL-2 melanoma
DMS 273 small cell lung = tested on: DMS 273 small cell lung
PC-3 prostate = tested on: PC-3 prostate
NCI/ADR-RES ovarian = tested on: NCI/ADR-RES ovarian

Structure (SMILES) | GI50 (NCI-H460 lung) | TGI (NCI-H460 lung) | GI50 (HL-60(TB) leukemia) | TGI (HL-60(TB) leukemia) | GI50 (HCC-2998 colon) | TGI (HCC-2998 colon) | GI50 (SNB-75 CNS) | TGI (SNB-75 CNS) | GI50 (HOP-18 NSCLC) | TGI (HOP-18 NSCLC) | TGI (NCI-H522 lung) | TGI (SK-MEL-2 melanoma) | TGI (DMS 273 small cell lung) | GI50 (PC-3 prostate) | TGI (PC-3 prostate) | GI50 (NCI-H522 lung) | GI50 (NCI/ADR-RES ovarian) | TGI (NCI/ADR-RES ovarian) | GI50 (SK-MEL-2 melanoma)
CC(=O)[CH-]C(=O)c1ccccc1.CC(=O)[CH-]C(=O)c1ccccc1.[Eu+3].[OH-].[OH3+] | > 100 µM | > 100 µM | > 100 µM | > 100 µM | > 100 µM | > 100 µM | 96.1 µM | > 100 µM | > 100 µM | > 100 µM | – | – | – | – | – | – | – | – | –
O=C1NC(=O)C2C(=O)NC(=O)C1C2(c1ccccc1)c1cc[nH]c1 (centres undefined) | – | > 100 µM | – | > 100 µM | – | > 100 µM | – | > 100 µM | – | – | > 100 µM | > 100 µM | > 100 µM | – | – | – | – | – | –
Cc1cc2nc3c4cc(N)ccc4n(CCN(C)C)c3nc2cc1C | 0.402 µM | 2.95 µM | 0.947 µM | 4.24 µM | 0.876 µM | 3.85 µM | 1.16 µM | 6.82 µM | – | – | 5.63 µM | 3.89 µM | – | 0.935 µM | 8.67 µM | 0.721 µM | 0.501 µM | 9.95 µM | 1.34 µM
N#C/C(=C/c1ccc[nH]1)P(=O)(O)O | – | > 100 µM | – | > 100 µM | – | > 100 µM | – | > 100 µM | – | – | > 100 µM | > 100 µM | > 100 µM | – | – | – | – | – | –
Oc1ccccc1C=NCc1ccco1 | – | > 100 µM | – | > 100 µM | – | – | – | > 100 µM | – | > 100 µM | – | – | – | – | – | – | – | – | –
CC1(C)N=C(N)N=C(N)N1c1ccc(OCCCCOc2ccc(S(=O)(=O)F)cc2)c(Cl)c1 | 0.0382 µM | 11.8 µM | 0.0595 µM | 13.7 µM | 0.485 µM | 18.2 µM | 0.737 µM | 17.1 µM | – | – | 16.2 µM | 22.1 µM | – | 0.064 µM | 11 µM | 0.16 µM | 71.6 µM | > 100 µM | 2.89 µM
CC(C)c1ccc(C2C3=C(N=C4SCC(=O)N42)C(=O)c2ccccc23)cc1 (centres undefined) | – | > 100 µM | – | > 100 µM | – | > 100 µM | – | > 100 µM | – | – | 98.7 µM | > 100 µM | > 100 µM | – | – | – | – | – | –
NC(N)=N/N=C\c1cccc(OCc2ccccc2)c1 | 2.55 µM | 7.79 µM | 2.66 µM | 6.35 µM | 1.81 µM | 3.54 µM | 7.03 µM | 23.4 µM | – | – | 11.3 µM | 13 µM | – | 11.2 µM | 25.1 µM | 2.16 µM | 3.85 µM | 22.2 µM | 3.31 µM
CCOc1ccc(-c2nonc2NC(=O)c2cccc(C)c2)cc1OCC | > 100 µM | > 100 µM | > 100 µM | > 100 µM | > 100 µM | > 100 µM | 14.5 µM | 52.3 µM | – | – | > 100 µM | > 100 µM | – | > 100 µM | > 100 µM | > 100 µM | > 100 µM | > 100 µM | > 100 µM
O=C(CNc1ccc2c(c1)C(=O)c1ccccc1C2=O)Nc1ccc2c(c1)C(=O)c1ccccc1C2=O | 1.28 µM | 2.88 µM | 1.57 µM | 4.35 µM | 1.58 µM | 2.99 µM | 1.79 µM | 4.3 µM | – | – | 0.318 µM | 2 µM | – | 1.29 µM | 3.48 µM | 0.153 µM | 0.819 µM | 4.68 µM | 0.697 µM
CC1=C2C[C@H]3[C@@H](CC[C@@H]4CC(NS(C)(=O)=O)CC[C@@]43C)[C@@H]2CC[C@@]2(C1)O[C@@H]1C[C@H](C)CN[C@H]1[C@H]2C (some centres undefined) | 4.81 µM | 16 µM | 6.12 µM | 21.4 µM | 14.1 µM | 28.2 µM | 3.07 µM | 15.9 µM | – | – | 29 µM | 15.4 µM | – | 4.39 µM | 17.3 µM | 14.3 µM | 12.2 µM | 28.3 µM | 6.76 µM
Cc1cc(S(N)(=O)=O)c(S/C(CC(C)C)=N\Nc2ccc([N+](=O)[O-])cc2)cc1Cl | 4.09 µM | 17.8 µM | 7.07 µM | > 100 µM | 2.46 µM | 6.27 µM | 4.05 µM | 18.7 µM | – | – | 72.2 µM | 34.6 µM | – | 3.16 µM | 11.9 µM | 18.8 µM | 5.9 µM | 19.2 µM | 8.22 µM
O=C(/C=C/c1cccnc1)NCCCCC1CCCN(C(=O)c2ccccc2)C1 (centres undefined) | 0.0227 µM | > 100 µM | 44.7 µM | > 100 µM | 0.974 µM | > 100 µM | – | > 100 µM | – | – | > 100 µM | > 100 µM | – | 1.47 µM | > 100 µM | < 0.01 µM | 0.0103 µM | > 100 µM | 5.71 µM
COc1cc2cc(Oc3ccc(NC(=O)Nc4cccc(C(F)(F)F)c4)cc3)c(C)nc2cc1OC | 1.6 µM | 6.02 µM | 1.56 µM | 3.91 µM | 2.59 µM | 50 µM | 1.17 µM | 6.18 µM | – | – | 4.49 µM | 2.87 µM | – | 1.39 µM | 5.49 µM | 1.32 µM | 1.71 µM | 7.19 µM | 1.28 µM
C/C(=N\Nc1cc(C)c2cc(C)ccc2n1)c1ccccn1 | 0.187 µM | 1.22 µM | < 0.0431 µM | 0.129 µM | < 0.0501 µM | 1.47 µM | 0.205 µM | 2.18 µM | – | – | 0.124 µM | 10.8 µM | – | – | 2.32 µM | < 0.0472 µM | 0.0666 µM | 3.85 µM | 0.0706 µM
O=c1c2ccccc2n(C[C@H]2CO2)c2ccccc12 | 1.7 µM | 4.43 µM | 1.28 µM | 3.29 µM | 1.51 µM | 3.44 µM | 1.52 µM | 3.46 µM | – | – | 3.74 µM | 3.83 µM | – | 2.04 µM | 8.34 µM | 1.61 µM | 1.7 µM | 6.25 µM | 1.96 µM
COC(=O)C1=C(C(=O)ON)C2C=CC1(C(Cc1ccccc1)Nc1ccccc1)O2 (centres undefined) | 18 µM | 40.7 µM | 2.89 µM | 10.1 µM | 16.9 µM | 32.3 µM | 8.9 µM | 21.2 µM | – | – | 2.98 µM | 24.4 µM | – | 5.58 µM | 19.9 µM | 1.45 µM | 14.7 µM | 36.2 µM | 11.6 µM
COc1cc2c3c(n(CCCN)c(=O)c2cc1OC)-c1cc2c(cc1/C3=C\CCN)OCO2 | 1.06 µM | 7.53 µM | 9.09 µM | > 73.9 µM | 0.382 µM | 1.77 µM | 1.85 µM | 8.02 µM | – | – | 3.08 µM | 14.6 µM | – | 4.43 µM | 17.8 µM | 0.2 µM | > 96.1 µM | > 100 µM | 6.57 µM
Ic1ccccc1-c1ccccc1 | > 100 µM | > 100 µM | 37.1 µM | > 100 µM | > 100 µM | > 100 µM | > 100 µM | > 100 µM | – | – | > 100 µM | > 100 µM | – | > 100 µM | > 100 µM | > 100 µM | > 100 µM | > 100 µM | 76 µM
O=c1ccn(C2OC(CO/N=C/c3ccc(O)c(O)c3O)C(O)C2O)c(=O)[nH]1 (centres undefined) | > 100 µM | > 100 µM | 26.9 µM | 68.1 µM | > 100 µM | > 100 µM | 16.4 µM | 32.2 µM | – | – | > 100 µM | > 100 µM | – | 25.1 µM | 86.9 µM | 50.6 µM | 20.5 µM | 49 µM | 57.4 µM
Nc1c(Br)cc(Br)c2c1[nH]c(=O)c1ccccc12 | 3.33 µM | 14.6 µM | > 100 µM | > 100 µM | > 100 µM | > 100 µM | 1.36 µM | 3.77 µM | – | – | > 100 µM | 60.3 µM | – | 14.4 µM | > 100 µM | 50.9 µM | 6.68 µM | 66.7 µM | 20.7 µM
O=c1nc2n(-c3ccc(Cl)cc3)c3ccc([N+](=O)[O-])cc3cc-2c(=O)[nH]1 | 23.1 µM | > 100 µM | 9.55 µM | > 100 µM | 22.3 µM | 54.3 µM | > 100 µM | > 100 µM | – | – | 57.2 µM | > 100 µM | – | 23.5 µM | 78.5 µM | 22.2 µM | 49.6 µM | > 100 µM | 55.1 µM
Cc1c(-c2c(-c3ccc(F)o3)sc3ncnc(O[C@H](Cc4ccccc4OCc4ccnn4CC(F)(F)F)C(=O)O)c23)ccc(OCCN2CCN(C)CC2)c1Cl | 4.17 µM | 10 µM | 0.0173 µM | 0.195 µM | 3.48 µM | 7.57 µM | 1.92 µM | 5.61 µM | – | – | 4.58 µM | 0.097 µM | – | 3.16 µM | 7.28 µM | 0.148 µM | 15.5 µM | 33.4 µM | 0.03 µM
CCOC(=O)c1[nH]c(Br)c(-c2ccc(Br)cc2)c1Br | – | > 100 µM | 0.207 µM | 0.596 µM | 11.6 µM | > 100 µM | 0.461 µM | 2.68 µM and 4.41 µM | – | – | 3.42 µM and 0.52 µM | 2.53 µM | – | 1.25 µM | 15.5 µM | 0.178 µM | 0.407 µM | – | –

— PubChem BioAssay (NCI)
